“Also recorded” adds a separate entry of the source. Starred links: 1 amine or outer side, 2 acyl side, 3 side chain; linkers in the order of their positions; H or OH if unused. Positions of bridges follow the written chain, without caps; N, C: chain ends. Non-standard residues stand in square brackets, D forms with d. Residues, ends and D or L forms follow the SMILES beside them. *: point of attachment. Leu(3R-OH,Nα-propionyl) = CCC(=O)N[C@H](C(=O)*)[C@H](O)C(C)C; X1 = CC(C)[C@@H](O[*:3])[C@H](N[*:1])C(=O)[*:2]; X2 = CC(C)[C@H](O[*:3])[C@@H](N[*:1])C(=O)[*:2]; NMeaThr = CN[C@H](C(=O)O)[C@H](C)O; dPhLac = O=C(O)[C@H](O)Cc1ccccc1; NMeA = CN[C@@H](C)C(=O)O; NMeDha = C=C(NC)C(=O)O
What was measured:
[1] = test system: 92.1 cells; assay: Melanocytic re-differentiation (morphology, pigmentation, immunostaining); type: cell-based, Human
Protocol: (§1) FIG. 5A Morphological changes elicited by FR. UM cell lines were treated 3 d with FR and imaged by phase contrast microscopy. FR caused UM cells driven by constitutively active Gαq (92.1 and Mel202) to lose their characteristic spindle shaped and assume a stellate shape with multiple projections. FR had no effect on BRAF-driven UM cells (OCM-1A). FIG. 5B Melanocytic differentiation of FR-treated UM cells indicated by pigmentation. UM cell lines were treated 3 d with FR. Cells were pelleted and examined macroscopically. […] Scale bar=50 μm.
Gαq-mutant 92.1 UM cells were treated with FR or vehicle, and RNA was collected 1 and 3 d after treatment for RNA-Seq analysis. FIG. 7A Unsupervised principal component analysis identified FR treatment and time in culture as the two main separable factors contributing to changes in gene expression. […] FIG. 7D FR-repressed genes identified as targets of the polycomb repressive complex 2 by Geneset enrichment analysis. FIG. 7E The Ezh1/2 inhibitor GSK503 blocks the morphological differentiation elicited by FR. 92.1 UM cells were treated 7 d with GSK503 and 3 d with FR and then imaged by phase contrast microscopy. […] 92.1 cells were treated 7 d with GSK503 and 3 d with FR and pelleted. FIG. 7G PRC2 inhibition by GSK503.
(§2) Cell fixation was carried out by adding an equal volume of 2×fixative (PBS with 4% paraformaldehyde and 0.4% glutaraldehyde) to UM cells in RPMI growth medium. After 15 min at 37° C., cells were permeabilized with 0.1% Triton X-100 in PBS for 5 min, washed with PBS, and blocked with 2% fish gelatin (Sigma-Aldrich) in PBS. Primary and secondary antibodies were diluted in 2% fish gelatin in PBS. Primary antibodies included mouse monoclonal anti-pre-melanosomal protein (One World Lab, San Diego, Calif.), rabbit polyclonal anti-tyrosinase (One World Lab), rabbit polyclonal anti-dopachrome tautomerase (One World Lab), rabbit polyclonal anti-S100 (DakoCytomation, Denmark), and mouse monoclonal anti-BrdU (Life Technologies). Secondary antibodies were Alexa-fluor conjugates (Life Technologies), and the mounting agent was ProLong Gold (Life Technologies). Cell morphology was assessed by phase contrast imaging with an inverted microscope (Olympus IX72) using a 10×objective.

[2] = test system: OCM-1A cells; assay: as above; type: cell-based, Human; conditions: 3 d FR, FIG. 5A
Protocol: as §1, §2

[3] = test system: Mel202 cells; assay: as above; type: cell-based, Human
Protocol: as §1, §2

[4] = test system: 92.1 UM cells; assay: UM cell viability, water-soluble tetrazolium salt assay; conditions: Homo sapiens, read-out: EC50, inhibition of proliferation (viability)
Protocol: Cells were cultured at 37.0 in 5% CO2. […] Cell lines were grown in RPMI 1640 medium (Life Technologies, Carlsbad, Calif.) supplemented with 10% FBS and antibiotics. Cell viability was measured using a water-soluble tetrazolium salt, WTS-8 (Bimake, Houston, Tex.), following the manufacturer's protocol. Flow cytometry for analysis of cell proliferation and apoptosis was performed at the Siteman Cancer Center Flow Cytometry Core on a FACScan analyzer (BD Biosciences, San Diego Calif., USA) using a standard propidium iodide staining protocol as described previously (44).

[5] = test system: OCM-1A UM cells; assay: qPCR validation of FR target genes; type: cell-based, Human; conditions: OCM-1A cells; FIG. 10
Protocol: (§3) The results for six genes showing significant changes in expression in response to FR by RNA-Seq were validated by qPCR.
(§4) 92.1 UM cells were treated with 100 nM FR or vehicle (DMSO) in RPMI growth medium and collected after 1 and 3 d of treatment. RNA was isolated using the RNeasy Mini Kit (Qiagen) following the manufacturer's protocol and including the optional DNase I treatment step. RNA quality was assessed on a Bioanalyzer 2100 (Agilent Technologies, Santa Clara, Calif., USA). mRNA was extracted from total RNA using a Dynal mRNA Direct kit, fragmented and reverse transcribed to double stranded cDNA with random primers before addition of adapters for library preparation. Library preparation and HiSeq2500 sequencing were performed by the Washington University Genome Technology Access Center (gtac.wustl.edu). FastQ files were aligned to the transcriptome and the whole-genome with STAR. Biologic replicates were simultaneously analyzed by edgeR and Sailfish analyses of gene-level/exon-level features. Unexpressed genes and exons were removed from the analyses. Unsupervised principal component analysis and volcano plots were generated in Bioconductor using edgeR. Significance Analysis of Microarrays (SAM), Version 4.0 was used to generate a ranked gene list, and a threshold of q<10% and fold-change >2.0 was then used to select the most highly significant genes that were down regulated in FR-treated versus vehicle control cells. This list was used as signature gene sets for Gene Ontology (GO) analysis and Gene Set Enrichment Analysis (GSEA) (45). […] Significant gene sets from GSEA analyses were combined such that genes associated with multiple related signatures were only counted once and each gene was assigned only to a single combined groupbased on the signature with the highest enrichment score for that gene. Significant gene expression changes were validated in all three UM cell lines by qPCR using fast SYBR Green Mastermix (Fisher Scientific) following the manufacturers' protocol. GAPDH was used as an endogenous control.

[6] = test system: 92.1 UM cells; assay: qPCR validation of FR target genes; type: cell-based, Human; conditions: 92.1 cells; FIG. 10
Protocol: as §3, §4

## C=C1C(=O)N[C@@H](C)C(=O)N(C)[C@@H](C)C(=O)N[C@H]([C@@H](OC(=O)[C@@H](NC(=O)CC)[C@H](O)C(C)C)C(C)C)C(=O)N(C)[C@@H]([C@H](C)OC)C(=O)O[C@H](C(C)C)[C@H](NC(C)=O)C(=O)O[C@H](Cc2ccccc2)C(=O)N1C [FR, [(1S)-1-[(3S,6R,9S,12S,18R,21S,22R)-21-acetamido-18-benzyl-3-[(1S)-1-methoxyethyl]-4,9,10,12,16-pentamethyl-15-methylidene-2,5,8,11,14,17,20-heptaoxo-22-propan-2-yl-1,19-dioxa-4,7,10,13,16-pentazacyclodocos-6-yl]-2-methylpropyl] (2S,3R)-3-hydroxy-4-methyl-2-(propanoylamino)pentanoate] (Ac-[X1][dPhLac][NMeDha]A[NMeA][X2](Leu(3R-OH,Nα-propionyl))[NMeaThr](Me); ester 1-C)
[1]; 3 d FR, FIG. 5A
  cell morphology (phase contrast): morphological changes indicative of re-differentiation
[1]; 3 d FR, FIG. 5B
  melanocytic pigmentation: strikingly increased
[1]; FIG. 5C
  expression levels of TYR, DCT and PMEL (immunofluorescence): increased
[2]
  cell morphology (phase contrast): no effect
[3]; 3 d FR, FIG. 5A
  cell morphology (phase contrast): morphological changes indicative of re-differentiation
[3]; 3 d FR, FIG. 5B
  melanocytic pigmentation: strikingly increased
[3]; FIG. 5C
  expression levels of TYR, DCT and PMEL (immunofluorescence): increased
[4]
  EC50: 2 nM
[5]
  expression of PMP22 and DCT (qPCR): no effect
  expression of PRC2 targets ADRA2A, HAND2, SCARF2 and WT1 (qPCR): unaffected; also recorded: no effect
[6]
  expression of PMP22 and DCT (qPCR): significantly upregulated
  expression of PRC2 targets ADRA2A, HAND2, SCARF2 and WT1 (qPCR): significant down-regulation

Reference: patent US20230130103A1, “TARGETED PHARMACOLOGICAL THERAPEUTICS IN UVEAL MELANOMA” (Washington University, priority 2017, published 2023)
